One data set concerns rat AD model. To be noted: cited from earlier work.
Another data set concerns the target T1, human OCT1 (Homo sapiens, UniProt O15245).
T1 construct: expressed in transfected cells; host or cells: CHO cells
T1 sequence (O15245 1-554): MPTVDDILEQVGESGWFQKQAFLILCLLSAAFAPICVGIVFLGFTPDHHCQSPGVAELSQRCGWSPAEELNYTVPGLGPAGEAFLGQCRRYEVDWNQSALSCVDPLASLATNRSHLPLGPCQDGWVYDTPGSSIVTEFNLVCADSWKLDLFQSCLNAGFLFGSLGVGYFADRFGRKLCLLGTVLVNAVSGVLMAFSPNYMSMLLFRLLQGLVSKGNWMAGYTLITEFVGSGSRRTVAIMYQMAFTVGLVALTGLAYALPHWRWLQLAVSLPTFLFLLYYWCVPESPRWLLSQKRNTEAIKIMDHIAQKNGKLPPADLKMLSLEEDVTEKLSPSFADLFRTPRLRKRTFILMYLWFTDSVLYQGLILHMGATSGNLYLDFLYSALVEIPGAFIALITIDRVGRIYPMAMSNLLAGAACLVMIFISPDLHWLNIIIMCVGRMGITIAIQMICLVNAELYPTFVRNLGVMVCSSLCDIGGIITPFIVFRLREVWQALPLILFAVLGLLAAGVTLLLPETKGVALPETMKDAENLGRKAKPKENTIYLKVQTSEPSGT
Put plainly: Indirect uptake transporter assay, OCT1. The data set is classed as in vitro ADME. The source says:
To determine whether memantine is an inhibitor of the human OATP2B1 (OATP-B), OCT1, OCT2, OAT3, PEPT1, PEPT2 uptake transporters. The standard uptake transporter assay is an indirect, inhibitory-type screening assay, performed with cold test article, which in this case was memantine. It provides information on any interaction (substrate or inhibitor) between selected uptake transporters and memantine that would affect the transport of the reporter compound. […] A radiolabeled reporter substrate is transported into the cells transfected with the selected human uptake transporter, and the inhibitory effect of memantine on the transport of this reporter substrate is measured. Values are presented on a relative scale; 100% defined as transport in the presence of the solvent and without memantine (no inhibition), and 0% defined as transport detected without transporter activity. IC50 is defined as the concentration required to inhibit the transport of the reporter substrate by 50%. […]
After the experiment cells were rinsed with 2 x 100µl of Krebs-Henseleit buffer and lysed with 50 µl of 0.1M NaOH. ^3H-estrone-3-sulfate, ^14C-TEA, ^14C-metformin and ^3H-Gly-Sar transport was determined by total radioactivity by transferring an aliquot (35µl) from each well to a vial containing liquid scintillant for analysis.

pIC50: −log10 of the molar value. Where “and” joins values, the source holds several entries; their conditions need not be identical. Equal entries are not always repeated.

`CC12CC3CC(C)(C1)CC(N)(C3)C2` [memantine]: in the data set with rat AD model, the cognition result was “improved cognition” and the neuroprotection result is “elicited neuroprotective effects”. Besides, the “Maximal Inhibition” value on human OCT1 (OCT1, up to 300 µM) is about 94%. Also, on human OCT1 (OCT1, probe in Table 5: Gly-Sar (1.8 μM), methods and text: TEA), the negative-log IC50 (pIC50) was 5.46 and 5.45.

(Values after paper PMC3269340, “Pharmacokinetics of memantine in rats and mice” (PLoS Currents, 2012).)
